# Values of other authors in patent US20090233811A1, “Manufacture of Array Chips” (Randox Laboratories Ltd., priority 2005, published 2009).
# Conditions: data from Sigma-Aldrich Handbook of Stains, Dyes and Indicators
row,SMILES,Solubility in water
1,O=S(=O)([O-])c1cc(/N=N/c2ccc(O)cc2)ccc1C=Cc1ccc(/N=N/c2ccc(O)cc2)cc1S(=O)(=O)[O-].[Na+].[Na+] [Brilliant Yellow],1 mg/mL
2,O=S(=O)([O-])c1cc(S(=O)(=O)[O-])c2c(N=Nc3ccc(N=Nc4ccccc4)cc3)c(O)ccc2c1.[Na+].[Na+] [Brilliant Crocein MOO],50 mg/mL
3,CC(=O)Nc1cc(S(=O)(=O)[O-])cc2cc(S(=O)(=O)[O-])c(/N=N/c3ccccc3)c(O)c12.[Na+].[Na+] [Acid Red 1],60 mg/mL

# Further lines, results first:
row,Solubility in water,SMILES
1,200 mg/mL,O=S(=O)([O-])c1cc(O)c2c(O)c(N=Nc3ccccc3)c(S(=O)(=O)[O-])cc2c1.[Na+].[Na+] [Chromotrope 2R]
2,300 mg/mL,O=C([O-])C1=NN(c2ccc(S(=O)(=O)[O-])cc2)C(=O)C1N=Nc1ccc(S(=O)(=O)[O-])cc1.[Na+].[Na+].[Na+] (stereo not drawn) [Tartrazine]
3,40 mg/mL,O=S(=O)([O-])c1ccc2c(/N=N/c3ccccc3)c(O)ccc2c1.[Na+] [Crocein Orange]
